Reference: patent US20240199555A1, “APPLICATIONS OF BIASED LIGANDS OF THE SEROTONIN 5-HT7 RECEPTOR FOR THE TREATMENT OF PAIN, MULTIPLE SCLEROSIS AND THE CONTROL OF THERMOREGULATION” (Centre National de la Recherche Scientifique, priority 2021, published 2024)
pIC50, pKi: −log10 of the molar value.

Key:
[1] = system: mice; experiment: MOG-induced experimental autoimmune encephalomyelitis (EAE) model; assay type: in vivo; conditions: 1 mg/kg, ip, day 8 to day 18
Excerpt: FIG. 12: Evaluation of the therapeutic potential of Serodolin in EAE model. A/Serodolin has been administrated for 10 days from day 8 after immunization. After 18 days post-immunization, myelin staining and cell infiltration have been evaluated in 3 groups of mice (non-immunized NI, Vehicle-treated mice or Serodolin-treated mice. B/Immunolabeling of astrocytes (GFAP) and microglia (Iba1) performed in all groups. Quantifications used Image J software. **p<0.01 *p<0.05.
Autoimmune experimental encephalomyelitis (EAE) model. For EAE model, the pathology was induced by subcutaneous injection of an emulsion of MOG35-55 peptide in complete Freund's adjuvant as previously described (Terry, Ifergan, & Miller, 2016). The mice were scored blindly once a day starting at Day 7 postimmunization until Day 30 according to the following scale: 0.0=no obvious changes in motor function; 0.5=tip of tail is limp; 1.0=limp tail; 1.5=limp tail and hind leg inhibition; 2.0=limp tail and weakness of hind legs or signs of head tilting; 2.5=limp tail and dragging of hind legs or signs of head tilting; 3.0=limp tail and complete paralysis of hind legs or limb tail with paralysis of one front and one hind leg; 3.5=limp tail and complete paralysis of hind legs and animal unable to right itself when placed on its side; 4.0=limb tail, complete hind leg, and partial front leg paralysis with minimal moving and feeding. Drugs were administered at the onset of clinical symptoms (Day 8) until Day 18 after immunization. Serodolin (1 mg/kg, ip) or vehicle was daily administered. Mice were given Ketamine/Xylasine anaesthesia and then intracardiacally perfused first with PBS EDTA for 20-30 min and then with PFA (paraformaldehyde) 4% for 20-30 min. Spinal cords were removed and incubated first in PFA 4% for 48-72 h and then in sucrose 30% Organ was included in TFM (Tissue freezing media) and snap frozen using isopentane and dry ice. Spinal cord were cut on 14 μm thick sections using Leica CM3050 S Research Cryostat for immunohistochemistry experiments.
The inventors considered that Serodolin could have some benefit effects on some chronic inflammatory processes, like those observed in MS. Myelin oligodendrocyte glycoprotein (MOG)-induced murine experimental autoimmune encephalomyelitis (EAE) is a widely accepted model for studying the clinical and pathological features of multiple sclerosis. After MOG induction of EAE (9 animals/group), the effect of AIC-01 injection was tested for […] (1 mg/kg, ip from day 8 to day 18 after MOG induction). Each animal was assessed by a behavioural test based on motor functions, and an EAE score was obtained. […] Histopathological characteristics performed after MOG-induction allowed to decipher Serodolin effect at molecular and cellular levels. […]

[2] = molecular target: human 5-HT2A receptor (Homo sapiens (Human), UniProt P28223); experiment: Radioligand binding competition, 5-HT2A; conditions: selectivity panel
[3] = system: C57BL/6 mice; experiment: Spared Nerve Injury (SNI) neuropathic pain model, Von Frey; conditions: s.c.
Method: Pregabalin, vehicle or compounds solutions are subcutaneously administrated for 8 consecutive days. • (A) Mechanical response threshold after the first administration (D+10). […] Positive control animals were treated with Pregabalin (5 mg/kg, sc). Statistical differences are indicated compared to vehicle group (Two-way RM ANOVA followed by Bonferroni post-hoc test: ***p<0.001, ** p<0.01, * p<0.05). […] Positive control animals were treated with Pregabalin (5 mg/kg, sc). Statistical differences are indicated compared to vehicle group (Two-way RM ANOVA followed by Bonferroni post-hoc test: ***p<0.001, ** p<0.01, * p<0.05). […] (Two-way RM ANOVA followed by Bonferroni post-hoc test: ***p<0.001, ** p<0.01, * p<0.05)
MOA51 and Serodolin (AIC01) compounds were diluted in NDT solution (NaCl 0.9%—DMSO 20%—Tween80 5%). […] AIC01 was resuspended at 0.5 mg/mL and administrated at a ratio of 100 μl per 10 g (dose of 5 mg/kg).
Experiment starts with 8 weeks old male C57B16J mice (from Charles River). Study was performed on 40 mice (2 mice were excluded during the study due to health guidelines) divided in 4 randomized groups. • Group A: s.c. injection at 5 mg/kg of pregabalin. • Group B: s.c. injection at 0.5 mg/kg of MOA51. • Group C: s.c. injection at 5 mg/kg of Serodolin (AIC01). • Group D: s.c. injection of NDT solution (referred as Vehicle hereafter).
Compounds solutions, pregabalin and vehicle were subcutaneously administrated (100 μl/10 g) for 9 consecutive days, starting 10 days after surgery. Ligature and transection of the common peroneal and tibial distal branches of the sciatic nerve was made leaving the sural branch intact. 7 days post-surgery, a decrease of threshold response to Von Frey filaments of ipsilateral hind-paw was observed corresponding to neuropathic pain apparition (mechanical allodynia). Mechanical threshold response of mice were measured with calibrated Von Frey filaments using the up/down method. Experimenter was blind to mice treatment. Measures are performed as follow: one baseline measure before surgery, one measure at D+10, D+12, D+14, D+16 and D+18 before drug's administration, and 1 h, 2 h post-drug administration. A supplementary measure 4 h post-drug administration was performed at D+10 and D+18.
Two-way RM ANOVA (followed by Bonferroni post-hoc test) was used to analysed time course response at D+10 and D+18. Area under the curve was determined with the 1 h and 2 h post-drug administration measures to investigated tolerance of repeated administration of compounds

[4] = Pharmacokinetic study in plasma and brain; assay type: in vivo, C57BL/6 mice; conditions: 5 mg/kg, subcutaneous
Method: FIG. 20: Pharmacokinetic study of E55888 and Serodolin. Concentration-time profile of E55888 (reference agonist) and Serodolin in plasma (A) and brain (B) following subcutaneous injection of a unique dose 5 mg/kg of each compound in C57BL/6 mice. Data represent the mean concentration±SEM of n=4 each time point.
The pharmacokinetic study was undertaken to evaluate and compare the quantity of Serodolin and E55888 in plasma and brain samples from C57BL/6 mice (Janvier, Le Genest France) at several time points. Seven weeks old C57BL/6 mice (n=4 animals per group) received by subcutaneous injection a unique dose (5 mg/kg) of Serodolin or E55888 (U103013S, Achemblock). Control group received vehicle (solution of 20% DMSO and 5% Tween 80 diluted in NaCl). […] Blank vehicle mouse brains homogenates and plasma were used to established standard curves of Serodolin or E55888. […] Study samples, brains homogenates and plasma, were prepared for protein precipitation by adding 85 μL of acetonitrile+5-CT to 20 μL of samples. LC-HRMS analysis for PK studies were performed on a maXis Q-TOF mass spectrometer (Bruker, Bremen, Germany) coupled to an U3000 RSLC UHPLC system (Dionex, Germering, Germany). Separation was obtained using an Acquity UPLC BEH C18 column (2.1×50 mm; 1.7 μm) (Waters, Saint-Quentin-en-Yvelines, France) thermostated at 40° C. with a gradient of water (solvent A) and acetonitrile (solvent B), both acidified with 0.1% formic acid at 500 μL/min. […] The samples were randomized prior analysis; 1.25 μL were injected for plasma and 8 μL for brains. […] Area were integrated from extracted ion chromatograms (EIC) of [M+H]+ ions using QuantAnalysis 4.4 software (Bruker) with a tolerance of ±0.005 u.
The pharmacokinetics profile of both compounds were evaluated. The inventors used liquid chromatography tandem mass spectrometry (UPLC-MS/MS) method to perform PK study and measure Serodolin vs E55888 levels in vivo.

[5] = system: mice; experiment: CFA-induced mechanical hypersensitivity, Von Frey filament test; assay type: in vivo; conditions: 5 mg/kg, s.c.
Method: Mechanical hypersensitivity was evaluated after CFA intraplantar injection by using the Von Frey test. […] Mechanical hypersensitivity was performed 24 hrs later (pre-treatment) CFA intraplantar injection into the left hind paw (ipsilateral paw). […] The ligand effects (E55888 or Serodolin) were evaluated 30 min and 24 hrs after in the ipsilateral paw. Data are means±SEM of values obtained in 2 independent experiments (n=8 to 10 per group). ****p<0.0001 ***p<0.001 **p<0.01 *p<0.05. Statistical analysis was done using Kruskal Wallis test.
Von Frey filament test. Before inducing peripheral inflammation, each animal was tested on the left hind paw with Von Frey Filament to determine its basal sensibility level. Then, peripheral inflammation was induced by intraplantar injection of Complete Freund's Adjuvant (CFA-10 μL) (F5881, Sigma) in the left hind paw (ipsilateral paw) and mechanical allodynia was measure (pre-treatment). Mice were divided into two groups, one with E55888 (5 mg/kg) and the other with Serodolin (5 mg/kg) subcutaneous injections in the ipsilateral paw. Both in absence (−) or in presence (+) of the 5-HT7R antagonist SB269960 (5 mg/kg), intraperitoneally, 20 min before the agonist injections (8-10 mice per group).
The inventors wanted to evaluate the effect of Serodolin on mechanical hypersensitivity in comparison with E-55888 after CFA injection.

Chain of human 5-HT2A receptor (P28223 whole entry): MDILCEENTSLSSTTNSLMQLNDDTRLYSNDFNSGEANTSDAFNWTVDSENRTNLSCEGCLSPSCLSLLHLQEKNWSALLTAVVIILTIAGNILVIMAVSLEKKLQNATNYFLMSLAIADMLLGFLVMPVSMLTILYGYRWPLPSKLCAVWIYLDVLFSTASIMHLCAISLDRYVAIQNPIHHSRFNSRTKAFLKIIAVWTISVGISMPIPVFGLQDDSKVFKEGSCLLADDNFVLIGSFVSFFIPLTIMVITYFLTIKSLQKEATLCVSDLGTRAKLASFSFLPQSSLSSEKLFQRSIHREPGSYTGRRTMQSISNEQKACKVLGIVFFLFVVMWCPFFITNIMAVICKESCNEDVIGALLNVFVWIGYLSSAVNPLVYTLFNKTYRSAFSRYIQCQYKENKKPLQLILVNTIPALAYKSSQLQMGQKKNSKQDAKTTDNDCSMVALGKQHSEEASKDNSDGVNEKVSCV

Structure (SMILES): O=c1[nH]c2ccccc2n1CN1CCN(c2ccc(F)cc2)CC1 [Serodolin]
- EAE score / onset of symptoms [1]: tended to show a delay in the onset of symptoms
- astrocytes and microglia staining [1]: significantly decreased
- cell infiltration (DAPI) [1]: reduces cell infiltration
- myelin staining, increase over vehicle-treated animals [1]: 65%
- pIC50 ([2]; read-out: RLB 5-HT2A IC50): 7.77
- pKi ([2]; read-out: RLB 5-HT2A Ki): 8.55
- tolerance after repetitive administration (AUC) ([3]; 9 consecutive days): didn't present any tolerance effect after repetitive administration
- mechanical response threshold vs vehicle ([3]; first (D+10) and last (D+18) administration, 1 h and 2 h): significant increase of the mechanical threshold response
- passage of the brain blood barrier [4]: ability to pass the brain blood barrier
- time of maximum of detection ([4]; both in plasma and brain): 15 to 30 min
- maximum of detection in brain ([4]; brain): 0.4 ± 0.8 µg/mL
- maximum of detection in plasma ([4]; plasma): 2.9 ± 0.8 µg/mL
- time after which eliminated / undetectable ([4]; plasma and brain): 240 min
- CFA-induced mechanical hypersensitivity, 30 minutes after administration ([5]; 30 minutes): Significantly decreased paw withdrawals thresholds (anti-allodynia)
- anti-allodynic effect 24 later ([5]; 24 hrs): still significant
